In test [1] the test system is Aspergillus sp. In words: Microbroth dilution assay, MIC over the three species. The settings on record: no visual growth of the three species of Aspergillus, 48 h. The test is classed as cell-based. How it is done: (§1) Pathogenic strains of fungi were obtained from the Mycology Department of Vallabhbhai Patel Chest Institute, Delhi. All the strains were grown on Sabouraud dextrose agar at 37°C. The conidia form these cultures were harvested and suspended in Sabouraud maltose broth. The number of conidia was counted using haemocytometer and their number in the suspension was adjusted to as per need of the experiment.
The antifungal susceptibility of the fungi to various fractions or the purified component was assayed by the microbroth, dilution method (Forthergill A.W. and McGough A.W., 1995, Clin. Microbiol. Procedure Handbook. In Vitro susceptibility Testing of Yeast, 5.15.1-5.15.15). The fungal spores were harvested from 96-h cultures and their number adjusted to 1x10^6 per ml. The Sabouraud Dextrose medium was dissolved in glass double distilled water and autoclaved at 10 psi for 15 min. 90-µl medium was added into the wells of cell culture plates. The different concentrations of the extract, fractions or the purified compound were prepared in duplicate wells and then the wells were inoculated with 10 µl of spore suspension. The plates were incubated at 37°C and examined macroscopically after 48 h for the growth of fungal mycelia. The activity was represented as -ve if growth was there and +ve if medium appeared clear with out any growth of fungi. […]

Test [2] has as its system Aspergillus species. Briefly: Spore germination inhibition assay. The test is classed as cell-based. The settings on record: percent spore germination inhibition, 10 hrs at 37° C. How it is done:
as §1
The modified spore germination inhibition assay was performed as described earlier (Sureder P. and Janaiah C., 1987, Ind. J. Expt. Biol., 25, 233-234). The fungal species were grown on Sabouraud dextrose agar plates at 37°C for 96 h. […] The conidia were counted and their number in the suspension was adjusted to 1x10^4 per ml. The standard drug Amphotericin B and test samples were initially dissolved in minimal quantity of dimethylsulfoxide (DMSO) and then diluted with Sabouraud dextrose medium. […] The number of germinated and non-germinated spores was counted. The percent spore germination inhibition (PSGI) was calculated using following formula PSGI = 100-(No.of spores germinated in drug treated well)/(No.of spores germinated in control well) [formula] […]
The spore germination inhibition assay was performed to evaluate the activity of the compound. […] The number of germinated and non-germinated spores was counted and the percent spore germination inhibition (PSGI) was calculated. […]

SMILES strings stand for the structures. ≈ marks a conversion by molar mass, not a printed value.

Take `CCCCC(=O)OC(C)CC1NCC(C)=C1C` (centres unmarked) [PC-1, 2-(3,4-dimethyl-2,5-dihydro-1H-pyrrol-2-yl)-1-methylethyl pentanoate]: the MIC in test [1] and in test [2] was 87.5 µg/mL (≈ 366 µM) throughout.

The record behind these values is patent publication EP1487791B1, “A NOVEL ANTIFUNGAL MOLECULE 2-(3,4-DIMETHYL-2,5-DIHYDRO-1H-PYRROL-2-YL)- METHYLETHYL PENTANOATE” (priority 2002, dated 2003).
